Target: Squalene monooxygenase (Sus scrofa)
Assay: Inhibitory concentration at which 50% decrease in the activity of Squalene epoxidase in pig liver microsomes

| IC50 | SMILES |
| --- | --- |
| > 400 µM | CC(C)=CCC/C(C)=C/CC/C(C)=C/CC/C=C(\C)CC/C=C(\C)CC/C=C/[N+](=O)[O-] [(1E,5E,9E,13E,17E)-5,9,14,18,22-Pentamethyl-1-nitro-tricosa-1,5,9,13,17,21-hexaene] |
| 13 µM | CC(C)=CCC/C(C)=C/CC/C(C)=C/CC/C=C(\C)CC/C=C(\C)CCCN(C)O [N-Methyl-N-((4E,12E,16E,20E)-4,8,13,17,21-pentamethyl-docosa-4,8,12,16,20-pentaenyl)-hydroxylamine] |
